Assay results as given in PMC11641657, “Innovative Approaches to Fucoxanthin Delivery: Characterization and Bioavailability of Solid Lipid Nanoparticles with Eco-Friendly Ingredients and Enteric Coating” (International Journal of Molecular Sciences, 2024).

Legend:
[1] = In vitro release study (dialysis cassette, SGF then SIF); format: physicochemical; details: 2 h SGF then SIF, 37 °C
Procedure: A 3 mL dispersion of solid lipid nanoparticles (SLNs) and fucoxanthin (FN) crystal at a concentration of 1 mg/mL/FN was placed in separate dialysis cassettes (Slide-A-Lyzer, Thermo Fisher Scientific, USA) with a molecular weight cutoff (MWCO) of 20 KDa. Each cassette was then immersed in 120 mL of release medium, consisting of 60% ethanol and 40% SGF, and maintained at 37 °C with a stirring speed of 120 rpm for the first 2 h. An appropriate amount of ethanol is necessary to be added to improve the release of FN in a water-based environment. Two hours later, SGF was replaced with SIF. Samples of 10 µL were periodically withdrawn from the internal compartment of the dialysis cassette, using methanol for extraction and dilution to determine the concentration of fucoxanthin. The remaining FN% was calculated with the following equation:(3) Releasing FX%=(1−Mt/M0)×100% where: M0 is the initial amount of FN, and Mt is the amount of FN calculated at a given incubation time.

[2] = Dispersion in ultra-pure water; format: physicochemical; details: visual
[3] = In vitro dissolution test with enteric-coated capsule (SGF then SIF); format: physicochemical
Procedure: In this study, 7.8 mg of FN–SLNs and FN crystals were encapsulated in separate enteric-coated capsules. The capsules were placed in a glass bottle containing 2 mL of SGF and maintained at 37 °C, stirring at 120 rpm for the first 2 h. During this period, 100 µL samples were collected at predetermined intervals to assess the dissolution profiles of both formulations. Each time a sample was taken, 100 µL of the corresponding fluid was added to maintain the total volume. […] Following this, the SGF was replaced with 2 mL of SIF, and sampling continued at specified intervals. After each sampling, the collected solutions were centrifuged for 2 min (5000 rpm, 4 °C) to separate any undissolved particles. The supernatants were then extracted using methanol, allowing for the quantification of FN using high-performance liquid chromatography (HPLC).

[4] = In vivo pharmacokinetics test, oral dosing, FNOH in plasma by LC-MS/MS; details: after oral 10 mg/kg, parent FN
Procedure: The qualification and quantification of FN and FNOH in plasma samples was conducted using Nexera LC-40 (Shimadzu UPLC, Kyoto, Japan) coupled with AB 6500+ Q-trap mass spectrometry (ABSCIEX, Framinham, MA, USA), which was equipped with electrospray ionization (ESI). The mobile phase was composed of H2O (A: 0.1% formic acid and acetonitrile (B, 0.1% formic acid; A:B = 10:90, v/v) at a flow rate of 0.35 mL/min, and the injection volume was 5 µL. The analysis utilized a Kinetex EVO C18 column (2.1 mm × 100 mm, 2.6 μm) Phenomenex, Torrance, CA, USA), which was maintained at a temperature of 25 °C. The detection of the compounds (Table 6) was performed in positive ion mode under the following conditions: curtain gas at 35.0 L/h, collision gas medium, ion spray voltage at 5000 V, temperature at 400 °C, and ion source gases 1 and 2 both at 55 L/h. […] The data was acquired using AB Analyst 1.6.1 software (ABSCIEX, USA).
They were provided with standard rat chow and water and libitum throughout the study. The rats were acclimatized to the laboratory environment for 7 days prior to the start of the experiment to minimize stress-induced effects. […]
The plasma drug concentration data were fitted using a non-compartmental model, and pharmacokinetic parameters were calculated via Phoenix WinNonlin 8.1 (Certara Corporation, Princeton, NJ, USA).

[5] = set-up: method as in PMID 11694619; details: one of the lowest among studied carotenoids; cited from earlier work
[6] = Morphology by TEM and SEM; format: physicochemical; details: in aqueous medium
Procedure: The samples were analyzed by means of a transmission electron microscopy (TEM) (Thermo Scientific Talos F200C) operating at 80 KV. For TEM analysis, the samples were placed on copper grids XP-UC300 (Shanghai X-Pivot Optoelectronic Technology Co., Ltd., Shanghai, China). Scanning Electron Microscopy (SEM) was used to determine the structure of the lyophilized FN–SLN. FN–SLN was dispersed in water and spread on a double-sided conducting adhesive tape, then was pasted on a metallic stub. After drying, it was coated ([…]) with gold in a sputter coating unit for […] using an accelerated voltage of 15 KeV.

## CC(=O)O[C@H]1CC(C)(C)C(=C=C/C(C)=C/C=C/C(C)=C/C=C/C=C(C)/C=C/C=C(\C)C(=O)C[C@@]23O[C@]2(C)C[C@@H](O)CC3(C)C)[C@](C)(O)C1 [FN, Fucoxanthin]
[1]
  Highest release rate in SGF and SIF: 2.88%
[2]
  Dispersion in water: inadequate
[3]
  Release rate throughout the 8-h observation period: consistently low release rate
[4]
  Concentration of FN in rat plasma: below the lowest limit of quantitation
[5]
  Bioavailability: ~ 50 pmol/mg protein
[6]
  Overall average length of crystals: exceeding 5 µm
